Source: patent US7468391B2, “Methods for treating retinoid responsive disorders using selective inhibitors of CYP26A and CYP26B” (Allergan, Inc., priority 2003, dated 2008)

Legend:
CYP26A (P450RAI-1) = target: T1, CYP26A (P450RAI-1) (Homo sapiens, UniProt O43174); experiment: Cell-based inhibition of RA metabolism in CYP26A stably transfected HeLa cells; conditions: stably transfected HeLa cells, [3H]-RA, 3 hours at 37° C.; read-out: P450RAI-1 Whole cell IC50
T1 construct: expressed in transfected cells; host or cells: HeLa
T1 sequence (O43174 1-497): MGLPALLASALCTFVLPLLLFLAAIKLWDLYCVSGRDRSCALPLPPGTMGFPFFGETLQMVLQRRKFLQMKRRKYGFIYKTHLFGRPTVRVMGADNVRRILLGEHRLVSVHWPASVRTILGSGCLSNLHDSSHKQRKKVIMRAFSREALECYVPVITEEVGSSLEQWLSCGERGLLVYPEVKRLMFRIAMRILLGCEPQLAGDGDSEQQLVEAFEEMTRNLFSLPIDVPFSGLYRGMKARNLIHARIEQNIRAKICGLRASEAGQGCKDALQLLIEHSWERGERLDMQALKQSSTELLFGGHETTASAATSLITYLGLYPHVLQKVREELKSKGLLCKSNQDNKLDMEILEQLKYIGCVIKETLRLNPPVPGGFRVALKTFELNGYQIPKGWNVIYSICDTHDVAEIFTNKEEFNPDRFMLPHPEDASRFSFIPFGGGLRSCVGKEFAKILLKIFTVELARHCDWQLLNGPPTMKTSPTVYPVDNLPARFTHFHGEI
Method in brief: (§1)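 Stably transfected HeLa cells (5×10^5/well) in MEM with 10% FBS and 0.05 μCi [3H]-RA, compounds at 10, 1 or 0.1 μM final, 3 h at 37° C. Retinoids extracted by modified Bligh-Dyer (methylene chloride); aqueous radioactivity counted; ID50 for 50% inhibition of RA metabolism derived from log-transformed data.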

CYP26B (P450RAI-2) = target: T2, CYP26B (P450RAI-2) (Homo sapiens, UniProt Q9NR63); experiment: Cell-based inhibition of RA metabolism in CYP26B stably transfected HeLa cells; conditions: stably transfected HeLa cells, [3H]-RA, 3 hours at 37° C.; read-out: P450RAI-2 Whole cell IC50
T2 construct: expressed in transfected cells; host or cells: HeLa
T2 sequence (Q9NR63 1-512): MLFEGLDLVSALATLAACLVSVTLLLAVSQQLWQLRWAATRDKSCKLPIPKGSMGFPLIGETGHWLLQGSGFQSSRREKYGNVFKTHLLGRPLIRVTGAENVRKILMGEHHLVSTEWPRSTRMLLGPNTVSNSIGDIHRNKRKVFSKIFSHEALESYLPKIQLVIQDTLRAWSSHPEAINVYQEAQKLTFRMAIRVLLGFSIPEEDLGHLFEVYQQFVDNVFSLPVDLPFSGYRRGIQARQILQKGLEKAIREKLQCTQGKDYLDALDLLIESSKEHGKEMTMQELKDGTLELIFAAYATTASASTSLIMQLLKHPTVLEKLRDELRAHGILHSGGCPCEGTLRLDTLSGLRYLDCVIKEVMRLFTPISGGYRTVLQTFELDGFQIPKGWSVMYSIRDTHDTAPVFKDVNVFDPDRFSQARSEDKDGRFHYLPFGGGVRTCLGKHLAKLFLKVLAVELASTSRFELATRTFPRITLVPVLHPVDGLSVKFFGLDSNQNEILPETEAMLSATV
Method in brief: as §1

RAR β [1] = target: T3, RAR β (Homo sapiens, UniProt P10826); experiment: RAR β EC50/(efficacy); format: cell-based; conditions: value in brackets of cell EC50/(EFFICACY)/Kd
T3 sequence (P10826 1-455): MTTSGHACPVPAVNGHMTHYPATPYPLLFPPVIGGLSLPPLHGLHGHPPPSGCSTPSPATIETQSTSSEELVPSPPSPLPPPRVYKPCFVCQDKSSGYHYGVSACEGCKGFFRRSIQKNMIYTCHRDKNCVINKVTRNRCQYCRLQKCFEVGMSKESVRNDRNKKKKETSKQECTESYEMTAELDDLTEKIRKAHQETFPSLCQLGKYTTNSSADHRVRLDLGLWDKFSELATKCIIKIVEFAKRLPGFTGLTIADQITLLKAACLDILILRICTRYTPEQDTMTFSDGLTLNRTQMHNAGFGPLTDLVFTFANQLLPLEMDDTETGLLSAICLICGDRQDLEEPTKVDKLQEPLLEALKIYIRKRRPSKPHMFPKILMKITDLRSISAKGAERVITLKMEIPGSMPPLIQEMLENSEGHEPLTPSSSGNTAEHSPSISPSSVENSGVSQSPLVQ

RAR α = target: T4, RAR α (Homo sapiens, UniProt P10276); experiment: RAR α Kd; format: binding; conditions: last item of cell EC50/(EFFICACY)/Kd
T4 sequence (P10276 1-462): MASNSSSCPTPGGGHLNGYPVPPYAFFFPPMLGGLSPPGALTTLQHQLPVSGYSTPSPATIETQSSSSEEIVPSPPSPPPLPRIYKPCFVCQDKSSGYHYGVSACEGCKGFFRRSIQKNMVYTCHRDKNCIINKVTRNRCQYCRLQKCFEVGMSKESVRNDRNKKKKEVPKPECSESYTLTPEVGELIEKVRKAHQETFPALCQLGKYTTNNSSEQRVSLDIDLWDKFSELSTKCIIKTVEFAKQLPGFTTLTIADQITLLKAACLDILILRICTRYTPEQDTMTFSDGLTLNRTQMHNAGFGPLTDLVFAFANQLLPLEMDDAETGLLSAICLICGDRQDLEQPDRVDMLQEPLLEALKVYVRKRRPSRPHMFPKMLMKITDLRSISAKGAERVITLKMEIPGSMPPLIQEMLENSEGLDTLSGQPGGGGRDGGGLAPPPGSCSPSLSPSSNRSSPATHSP

RAR β [2] = target: T3, RAR β; experiment: RAR β Kd; format: binding; conditions: last item of cell EC50/(EFFICACY)/Kd
RAR γ [3] = target: T5, RAR γ (Homo sapiens, UniProt P13631); experiment: RAR γ Kd; format: binding; conditions: last item of cell EC50/(EFFICACY)/Kd
T5 sequence (P13631 1-454): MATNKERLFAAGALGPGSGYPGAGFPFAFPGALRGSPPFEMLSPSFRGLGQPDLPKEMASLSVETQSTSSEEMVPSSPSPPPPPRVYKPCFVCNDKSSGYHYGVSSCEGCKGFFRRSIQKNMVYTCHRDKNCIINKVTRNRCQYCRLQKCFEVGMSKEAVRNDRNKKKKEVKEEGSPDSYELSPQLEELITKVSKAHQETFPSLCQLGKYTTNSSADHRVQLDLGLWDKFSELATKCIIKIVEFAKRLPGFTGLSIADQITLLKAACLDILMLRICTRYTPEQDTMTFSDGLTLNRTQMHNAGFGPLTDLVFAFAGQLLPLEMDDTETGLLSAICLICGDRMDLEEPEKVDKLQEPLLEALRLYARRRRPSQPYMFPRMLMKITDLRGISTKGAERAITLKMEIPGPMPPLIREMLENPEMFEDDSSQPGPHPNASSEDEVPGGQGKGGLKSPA

RAR γ [4] = target: T5, RAR γ; experiment: RAR γ EC50/(efficacy); format: cell-based; conditions: value in brackets of cell EC50/(EFFICACY)/Kd

Row | IC50 (CYP26A (P450RAI-1)) [µM] | IC50 (CYP26B (P450RAI-2)) [µM] | RAR β (EFFICACY) (RAR β [1]) | Kd (RAR α) [µM] | Kd (RAR β [2]) [µM] | Kd (RAR γ [3]) [µM] | RAR γ (EFFICACY) (RAR γ [4]) | SMILES
1 | > 10 | 0.6 | 25 | > 10 | > 10 | > 10 | – | CN(Cc1cccc(C#Cc2ccc(/C=C/C(=O)O)cc2)c1)C1CC1 [Compound 31, (E)-3-(4-{3-[(Cyclopropyl-methyl-amino)-methyl]-phenylethynyl}-phenyl)-acrylic acid]
2 | 0.4 | > 10 | < 5 | > 10 | > 10 | > 10 | – | CN(C1CC1)C1CCC(C)(C)c2cc(C#Cc3ccc(C(C)(C)C(=O)O)cc3)ccc21 (stereo not drawn) [Compound 52, 2-{4-[5-(Cyclopropyl-methyl-amino)-8,8-dimethyl-5,6,7,8-tetrahydro-naphthalen-2-ylethynyl]-phenyl}-2-methyl-propionic acid]
3 | 0.016 | > 10 | – | > 10 | > 10 | > 10 | 30 | CC(C)Oc1cc(C#Cc2ccc(CC(=O)O)cc2)cc2c1C(N(C)C1CC1)CCC2(C)C (stereo not drawn) [Compound 41, {4-[5-(Cyclopropyl-methyl-amino)-4-isopropoxy-8,8-dimethyl-5,6,7,8-tetrahydro-naphthalen-2-ylethynyl]-phenyl}-acetic acid]
4 | 0.035 | 5 | 30 | 8.57 | 7.19 | 7.75 | – | CCOC(=O)c1cc(C#Cc2ccc(CC(=O)O)cc2)cc2c1C(N(C)C1CC1)CCC2(C)C (stereo not drawn) [Compound 24, 3-(4-Carboxymethyl-phenylethynyl)-8-(cyclopropyl-methyl-amino)-5,5-dimethyl-5,6,7,8-tetrahydro-naphthalene-1-carboxylic acid ethyl ester]
5 | 0.007 | 0.2 | 15 | > 10 | > 10 | > 10 | – | C=Cc1cc(C#Cc2ccc(CC(=O)O)cc2)cc2c1C(=O)CCC2(C)C [Compound 22, [4-(8,8-Dimethyl-5-oxo-4-vinyl-5,6,7,8-tetrahydro-naphthalen-2-ylethynyl)-phenyl]-acetic acid]
6 | 3.5 | > 10 | 25 | > 10 | 4.61 | > 10 | – | CCOC(=O)C1=C(C)CC(C)(C)c2cc(C#Cc3ccc(CC(=O)O)cc3)ccc21 [Compound 58, 6-(4-Carboxymethyl-phenylethynyl)-2,4,4-trimethyl-3,4-dihydro-naphthalene-1-carboxylic acid ethyl ester]
7 | 0.18 | > 10 | 15 | > 10 | > 10 | > 10 | – | COc1cc(C#CC2=CCC(/C=C(\C)C(=O)O)C=C2)cc2c1C(N(C)C1CC1)CCC2(C)C (stereo not drawn) [Compound 30, (E)-3-{4-[5-(Cyclopropyl-methyl-amino)-4-methoxy-8,8-dimethyl-5,6,7,8-tetrahydro-naphthalen-2-ylethynyl]-cyclohexa-2,4-dienyl}-2-methyl-acrylic acid]
8 | 0.2 | > 10 | 5 | > 10 | > 10 | > 10 | – | CC(C(=O)O)c1ccc(C#Cc2ccc3c(c2)C(C)(C)CCC3N(C)C2CC2)cc1 (stereo not drawn) [Compound 51, 2-{4-[5-(Cyclopropyl-methyl-amino)-8,8-dimethyl-5,6,7,8-tetrahydro-naphthalen-2-ylethynyl]-phenyl}-propionic acid]
9 | 1.2 | > 10 | 35 | > 10 | 2.86 | > 10 | – | CCOC(=O)C1=C(C)CC(C)(C)c2cc(C#Cc3ccc(CC(=O)O)c(F)c3)ccc21 [Compound 59, 6-(4-Carboxymethyl-3-fluoro-phenylethynyl)-2,4,4-trimethyl-3,4-dihydro-naphthalene-1-carboxylic acid ethyl ester]
